# Measured values as given in patent EP0178388A1, “Quinolinecarboxylic acid derivatives” (KYORIN PHARMACEUTICAL CO., LTD., priority 1984, dated 1986).
# Read-outs that look alike come from different tables or passages of the source.
# Key:
# [1] = test system: Staphylococcus aureus 209 P; assay: In vitro antibacterial activity, MIC (standard strain); assay type: cell-based; conditions: 10^6 cells/ml
# [2] = test system: Serratia marcescens IID 618; assay: as above; assay type: cell-based
# S. pneumoniae S-4288 [3] = assay: MIC against the infecting strain (Table 2); assay type: cell-based; conditions: Streptococcus pneumoniae, S4288; S. pneumoniae S-4288 (Table 2, part 4)
# S. pneumoniae S-4288 [4] = assay: In vivo antibacterial activity against systemic infection in mice; set-up: species or system mice (ICR-S); conditions: Streptococcus pneumoniae
# Experimental: (§1) Experiment 2 In vivo antibacterial activity against systemic infection in mice (ICR-S)
# (§2) The infections were produced by intraperitoneal infection of a suspension of the bacterial culture corresponding to the germ studied. The product was administered orally at 1 hour after the infection. The 50% effective dose (ED50) which protects 50% of the animals from death caused by the infection was determined from the relation between dosage and survival rate.
# K. pneumoniae KY(GN)6445 = assay: In vitro antibacterial activity, MIC (standard strain); assay type: cell-based
# P. aeruginosa IFO 12689 = assay: as above; assay type: cell-based
# Pst. micros UPI 5464-1 = assay: as above; assay type: cell-based; conditions: Parvimonas micra, UPI54641, Pst. micros UPI 5464-1, 10^6 cells/ml
# [5] = test system: C. perfringens KYA (ATCC) 13123; assay: microbe, parasite or virus in culture; assay type: cell-based; conditions: Clostridium perfringens
# [6] = test system: Enterobacter cloacae IID 977; assay: In vitro antibacterial activity, MIC (standard strain); assay type: cell-based; conditions: IID977, Enterobacter cloacae IID 977, 10^6 cells/ml
# [7] = test system: Veillonella parvula KYA 10790; assay: as above; assay type: cell-based; conditions: KYA10790, Veillonella parvula KYA 10790, 10^6 cells/ml
# [8] = test system: Bacillus subtilis PCI 219; assay: as above; assay type: cell-based; conditions: PCI219
# [9] = test system: Bacteroides fragilis GM 7000; assay: as above; assay type: cell-based; conditions: GM7000
# E. coli ML4707 [10] = assay: In vivo antibacterial activity against systemic infection in mice;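 note: ED50 in mg/kg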; conditions: Escherichia coli, ML4707, po, 1 h, E. coli ML4707, mice (ICR-S), intraperitoneal infection, oral at 1 hour after infection
# Experimental: as §1, §2
# [11] = test system: Escherichia coli NIHJ JC-2; assay: In vitro antibacterial activity, MIC (standard strain); assay type: cell-based; conditions: NIHJJC2, Escherichia coli NIHJ JC-2, 10^6 cells/ml
# E. coli ATCC 10536 = assay: as above; assay type: cell-based; conditions: Escherichia coli, ATCC10536; E. coli ATCC 10536, 10^6 cells/ml, standard strain; read-out: MIC
# [12] = test system: S. aureus IID 670 (Terajima); assay: as above; assay type: cell-based; conditions: Staphylococcus aureus, IID670, 10^6 cells/ml
# B. fragilis 0558 = assay: as above; assay type: cell-based; conditions: Bacteroides fragilis, 0558
# [13] = test system: Salmonella enteritidis IID 604; assay: as above; assay type: cell-based; conditions: Salmonella enterica
# P. mirabilis IID 994 = assay: as above; assay type: cell-based; conditions: Proteus mirabilis, IID994, P. mirabilis IID 994, 10^6 cells/ml
# [14] = test system: Citrobacter freundii IID 976; assay: as above; assay type: cell-based; conditions: IID976
# [15] = test system: Yersinia enterocolitica IID 981; assay: as above; assay type: cell-based; conditions: IID981
# [16] = test system: Alcaligenes faecalis 0114002; assay: as above; assay type: cell-based; conditions: Alcaligenes faecalis 0114002, 10^6 cells/ml
# B. distasonis 8503 = assay: as above; assay type: cell-based; conditions: Parabacteroides distasonis, B. distasonis 8503, 10^6 cells/ml
# B. fragilis 25285 = assay: as above; assay type: cell-based; conditions: Bacteroides fragilis, 25285
# [17] = test system: B. thetaiotaomicron (0661); assay: as above; assay type: cell-based; conditions: Bacteroides thetaiotaomicron
# [18] = test system: F. varium KYA (ATCC) 8501; assay: as above; assay type: cell-based; conditions: Fusobacterium varium, F. varium KYA (ATCC) 8501, 10^6 cells/ml
# [19] = test system: Pseudomonas aeruginosa V-1; assay: as above; assay type: cell-based; conditions: V1
# [20] = test system: Proteus vulgaris IFO 3167; assay: as above; assay type: cell-based; conditions: IFO3167
# P. morganii IID 602 = assay: as above; assay type: cell-based; conditions: Morganella morganii, IID602
# Shigella sonnei IID 969 = assay: as above; assay type: cell-based; conditions: IID969, Shigella sonnei IID 969, 10^6 cells/ml
# Experimental: (§3) The in vitro antibacterial activity has been investigated, the minimun inhibitory concentration (MIC) was determined in accordance with the method recommended by Japan Society of Chemotherapy.
# [21] = test system: Peptostreptococcus anaerobius KYA 27337; assay: as above; assay type: cell-based; conditions: KYA27337, Peptostreptococcus anaerobius KYA 27337, 10^6 cells/ml
# E. coli ML4707 [22] = assay: MIC against the infecting strain (Table 2); assay type: cell-based; conditions: Escherichia coli; E. coli ML4707 (Table 2, parts 1 and 2)
# Experimental: as §3
# [23] = test system: Acinetobacter anitratus IID 876; assay: In vitro antibacterial activity, MIC (standard strain); assay type: cell-based; conditions: Acinetobacter calcoaceticus, IID876
# S. epidermidis IID 866 = assay: as above; assay type: cell-based; conditions: Staphylococcus epidermidis, IID866, S. epidermidis IID 866, 10^6 cells/ml
# [24] = test system: Clostridium difficile I-E; assay: as above; assay type: cell-based; conditions: Clostridioides difficile, 10^6 cells/ml
# C. ramosum = assay: as above; assay type: cell-based; conditions: Thomasclavelia ramosa
# [25] = test system: Klebsiella pneumoniae I-220S; assay: as above; assay type: cell-based; conditions: Klebsiella pneumoniae
# P. aeruginosa IID 1210 = assay: In vivo antibacterial activity against systemic infection in mice; set-up: species or system mice (ICR-S); conditions: Pseudomonas aeruginosa, IID1210, po, 1 h;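 note: ED50 in mg/kg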
# Experimental: as §1, §2
# S. aureus Smith = assay: as above; set-up: species or system mice (ICR-S); conditions: Staphylococcus aureus, po, 1 h;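 note: ED50 in mg/kg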
# Experimental: as §1, §2
compound,measurement,setting,value
"CC1CN(c2c(F)cc3c(=O)c(C(=O)O)cn(C4CC4)c3c2Cl)CCN1 (stereo not drawn) [Example 7, 8-Chloro-l-cyclopropyl-6-fluoro-l,4-dihydro-7-(3-methyl-l-piperazinyl)-4-oxoquinoline-3-carboxylic acid]",MIC,[1],0.10 µg/mL
same,MIC,"[2]; Serratia marcescens IID 618, 10^6 cells/ml",0.05 µg/mL
same,MIC,S. pneumoniae S-4288 [3],0.78 µg/mL
same,ED50,"S. pneumoniae S-4288 [4]; S4288, S. pneumoniae S-4288, mice (ICR-S), intraperitoneal infection, oral at 1 hour after infection, challenge dose 2.5 x 10^3 cfu/mouse, read-out: ED50",15.6 mg/kg
same,MIC,"K. pneumoniae KY(GN)6445; K. pneumoniae KY(GN)6445, 10^6 cells/ml, standard strain",0.025 µg/mL
same,MIC,"P. aeruginosa IFO 12689; P. aeruginosa IFO 12689, 10^6 cells/ml, standard strain, listed as Exp.7",0.78 µg/mL
"CC1CN(c2c(F)cc3c(=O)c(C(=O)O)cn(C4CC4)c3c2F)CC(C)N1 (stereo not drawn) [Example 4, 1-Cyclopropyl-6,8-difluoro-1,4-dihydro-7-(3,5-dimethyl-l-piperazinyl)-4-oxoquinoline-3-carboxylic acid]",MIC,Pst. micros UPI 5464-1,0.39 µg/mL
same,MIC,[5],1.56 µg/mL
same,MIC,[6],0.05 µg/mL
same,MIC,[7],0.39 µg/mL
same,MIC,"[8]; Bacillus subtilis PCI 219, 10^6 cells/ml, standard strain, read-out: MIC",0.05 µg/mL
same,MIC,"[9]; Bacteroides fragilis GM 7000, 10^6 cells/ml, standard strain, read-out: MIC",3.13 µg/mL
same,ED50,"E. coli ML4707 [10]; challenge dose 6.0 x 10^6 cfu/mouse (part 1), read-out: ED50",0.13 mg/kg
same,MIC,[11],≤ 0.025 µg/mL
same,MIC,[1]; read-out: MIC,0.2 µg/mL
same,MIC,E. coli ATCC 10536,≤ 0.006 µg/mL
same,MIC,[12],0.2 µg/mL
same,MIC,B. fragilis 0558,1.56 µg/mL
same,MIC,"[13]; Salmonella enteritidis IID 604, 10^6 cells/ml, standard strain, read-out: MIC",0.05 µg/mL
same,MIC,P. mirabilis IID 994,0.1 µg/mL
same,MIC,"[14]; Citrobacter freundii IID 976, 10^6 cells/ml, standard strain, read-out: MIC",0.025 µg/mL
same,MIC,"[15]; Yersinia enterocolitica IID 981, 10^6 cells/ml, standard strain, read-out: MIC",0.1 µg/mL
same,MIC,"[2]; IID618, Serratia marcescens IID 618, 10^6 cells/ml, read-out: MIC",0.1 µg/mL
same,MIC,[16],0.2 µg/mL
same,MIC,B. distasonis 8503,3.13 µg/mL
same,MIC,B. fragilis 25285,1.56 µg/mL
same,MIC,"[17]; B. thetaiotaomicron (0661), 10^6 cells/ml, standard strain, read-out: MIC",6.25 µg/mL
same,MIC,[18],12.5 µg/mL
same,MIC,"[19]; Pseudomonas aeruginosa V-1, 10^6 cells/ml, standard strain, read-out: MIC",0.39 µg/mL
same,MIC,"[20]; Proteus vulgaris IFO 3167, 10^6 cells/ml, standard strain, read-out: MIC",0.025 µg/mL
same,MIC,"P. morganii IID 602; P. morganii IID 602, 10^6 cells/ml, standard strain, read-out: MIC",0.1 µg/mL
same,MIC,"K. pneumoniae KY(GN)6445; Klebsiella pneumoniae, K. pneumoniae KY(GN)6445, 10^6 cells/ml, standard strain, read-out: MIC",0.025 µg/mL
same,MIC,Shigella sonnei IID 969,0.0125 µg/mL
same,MIC,"P. aeruginosa IFO 12689; Pseudomonas aeruginosa, IFO12689",1.56 µg/mL
same,MIC,[21],3.13 µg/mL
same,MIC,E. coli ML4707 [22],0.0125 µg/mL
same,MIC,"[23]; Acinetobacter anitratus IID 876, 10^6 cells/ml, standard strain, read-out: MIC",0.006 µg/mL
same,MIC,S. epidermidis IID 866,0.39 µg/mL
same,MIC,[24],12.5 µg/mL
"O=C(O)c1cn(C2CC2)c2cc(N3CCNCC3)c(F)cc2c1=O [CFLX, 1-Cyclopropyl-6-fluoro-1,4-dihydro-4-oxo-7-(1-piperazinyl)-quinoline-3-carboxylic acid, reference compound]",MIC,C. ramosum,3.13 µg/mL
same,MIC,[8]; Bacillus subtilis,0.05 µg/mL
same,MIC,[9]; Bacteroides fragilis,3.13 µg/mL
same,ED50,E. coli ML4707 [10]; challenge dose 6.0 x 10^6 cfu/mouse (part 1),0.67 mg/kg
same,ED50,E. coli ML4707 [10]; challenge dose 8.3 x 10^6 cfu/mouse (part 2),0.75 mg/kg
same,MIC,[11],≤ 0.006 µg/mL
same,MIC,B. fragilis 0558,3.13 µg/mL
same,MIC,[13],0.025 µg/mL
same,MIC,[14]; Citrobacter freundii,≤ 0.006 µg/mL
same,MIC,[15]; Yersinia enterocolitica,0.05 µg/mL
same,MIC,[25],0.05 µg/mL
same,MIC,B. fragilis 25285,3.13 µg/mL
same,MIC,[17],3.13 µg/mL
same,ED50,P. aeruginosa IID 1210,8 mg/kg
same,ED50,"S. pneumoniae S-4288 [4]; S4288, po, 1 h",> 100 mg/kg
same,ED50,S. aureus Smith,12.8 mg/kg
same,MIC,[19]; Pseudomonas aeruginosa,0.2 µg/mL
same,MIC,[20]; Proteus vulgaris,≤ 0.006 µg/mL
same,MIC,P. morganii IID 602,0.05 µg/mL
same,MIC,K. pneumoniae KY(GN)6445; Klebsiella pneumoniae,0.025 µg/mL
same,MIC,Shigella sonnei IID 969,≤ 0.006 µg/mL
same,MIC,[23],0.025 µg/mL
